“Also recorded” adds a separate entry of the source.
Tests used:
[1] = LC-MS/MS CBD dosing in blood/plasma after topical application; format: in vivo, Equus caballus (horse) and Equus ferus caballus (poney)
[2] = test system: IBH horse skin lesions; assay: Topical CBD oil formulation on skin lesions of horses diagnosed with IBH (pruritus score, IBH lesion score); format: in vivo, Equus caballus (horse) and Equus ferus caballus (poney); settings: 1% (w/w) CBD in sesame oil, topical once daily, 4 weeks
Protocol: (§1) The application was made by hand (using a cotton) and a glove was used for massaging the product into the affected skin area. Each horse received at minimum 1 bottle of 100 ml on Day 1 and 1 Bottle on Day 14, administration was indicated to be daily. Larger volumes have been used for larger lesions.
(§2) Safety parameters were measured by hematology measures and serum amyloid A (SSA) measures and IBH lesion score was calculated as detailed in Fettelschoss-Gabriel et al., 2018, J Allergy Clin Immunol 142(4): 1194-1205 at the beginning and at the end of the study as a disease specific observation. […] Pruritus was scored from 1-5 for each skin area affected and was calculated taking into account 3 main factors: tail scratching; mane scratching and belly scratching on ground/floor. SUM Score Pruritus-Day 1: 6 Pruritus score was calculated for Day 1, Day 14, Day 28
Then, the mean was calculated. Main pruritus signs are: tail scratching, mane scratching, face scratching and sometimes rolling on the ground for belly scratching.

[3] = target: CB2 receptors (Homo sapiens, UniProt P34972); settings: compared with THC; cited from earlier work
[4] = Safety parameters by hematology measures; format: in vivo, Equus caballus (horse) and Equus ferus caballus (poney); settings: 1% (w/w) CBD topical, 4 weeks
Protocol: as §1, §2

Chain of CB2 receptors (P34972 whole entry): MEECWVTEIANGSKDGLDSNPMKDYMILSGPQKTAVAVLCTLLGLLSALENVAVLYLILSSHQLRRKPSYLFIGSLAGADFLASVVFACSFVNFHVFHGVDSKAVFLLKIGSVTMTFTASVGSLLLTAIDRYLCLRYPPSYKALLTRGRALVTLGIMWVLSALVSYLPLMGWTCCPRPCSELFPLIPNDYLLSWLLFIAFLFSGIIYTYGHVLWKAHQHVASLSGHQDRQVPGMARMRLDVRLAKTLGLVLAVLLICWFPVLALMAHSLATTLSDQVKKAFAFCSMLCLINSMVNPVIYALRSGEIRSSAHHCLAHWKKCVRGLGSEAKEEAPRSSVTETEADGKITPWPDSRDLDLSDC

C=C(C)[C@@H]1CCC(C)=C[C@H]1c1c(O)cc(CCCCC)cc1O [CBD, 2-[(1R,6R)-6-isopropenyl-3-methylcyclohex-2-en-1-yl]-5-pentylbenzene-1,3-diol]
CBD concentration in plasma ([1]; 1% topical concentration, LC-MS/MS): not found in detectable concentrations
systemic absorption ([1]; at 1% topical concentration): negligible
IBH symptoms during treatment (IBH lesion score) ([2]; 11 animals with mild to moderate IBH): clear decrease
pruritus symptoms during treatment (pruritus score) ([2]; score Day 1, Day 14, Day 28): reduce pruritus score; also recorded: clear decrease
affinity for CB2 receptors [3]: very low affinity
WBC count [4]: No particular trend
eosinophile count [4]: No particular trend
